Where two headings read alike, the source gives them in different places.
Experiments:
BCL6 [1] = target: T1, BCL6 (Homo sapiens (Human), UniProt P41182); assay: BCL6 TR-FRET assay (BCL6-Avitag-Biotin / BCoR-Cy5 peptide); assay type: binding
Procedure: Protein Synthesis. BCL6 protein was expressed by transforming Invitrogen One Shot cells with GS63525 pET24a-His-SUMO-TEV-BCLm-Avitag plasmid following manufacturer's instructions. In addition, biotin at a final concentration of 50 μM, and IPTG at a final concentration of 1 mM was added to the culture and incubated at room temperature shaking overnight.
Assay buffer A: 50 mM HEPES pH 7.5, 125 mM NaCl, 0.01% TritonX.
Assay buffer B (made fresh): buffer A+1 mM Glutathione (or 0.5 mM DTT).
Assay buffer C (made fresh): buffer B+0.03% BSA.
Black Proxy plates, 96 well.
15 μl final reaction volumes (BCoR-Cy5 100 nM, SA-Eu 2 nM, BCL6-avitag 2 nM).
[…] BCL6-Avitag-Biotin stock: made fresh by adding 2 μl of BCL6-Avitag-Biotin to 31.5 ml Buffer C.
1 mM BCoR-Cy5 peptide (LifeTein) stock in Dimethylformamide (DMF).
300 nM BCoR-Cy5 working stock: made fresh by adding 4.5 μl of the 1 mM BCoR-Cy5 peptide stock to 15 ml Buffer B.
10 μM Eu-Streptavidin (Lance Eu-W1024 Streptavidin, PerkinElmer) stock solution.
6 nM Eu-Streptavidin working stock: made fresh by adding 9 μl Eu-Streptavidin stock solution to 15 ml Buffer A.
Compounds were diluted to 10 mM. Twenty microliters of DMSO was aliquoted to each well of the microtiter plates. From the 10 mM compound stock, 8.7 ul was aliquoted to the 20 ul DMSO and 3-fold serial dilutions (12 pt 3-0.01 uM tritration plate, 96 well, 100% DMSO) performed. Five ul from the titration plate wells was aliquoted to 45 ul Buff C (Intermediate dilution plates, 10% DMSO).
Spot 1.5 μl compound titrations to 384-well plates in duplicate, and spot 3.5 μl [8.5 nM] BCL6-bio protein to each well. The plate was mix briefly, centrifuged, and incubated for 30 minutes at room temperature.
Mix 14 mls of BCoR-Cy5 [300 nM] and 14 mls [6 nM] Eu-Streptavidin. Spot 10 μl BCoR-Cy5/SA-Eu (1:1) mix to each well. The plates were incubated for 2 hours and then read on an Envision plate reader.

BCL6 [2] = target: T1, BCL6; assay: Immunofluorescence high content imaging of BCL6 degradation in T47D cells; assay type: cell-based; conditions: for Dmax: T47D, maximum, class symbols A-C; for DC50: class symbols A-D, read-out: EC50 (nM)*
In short: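 Following a 3-day incubation with serially diluted bifunctional compounds (final top 0.1 or 1 μM), T47D cells were PFA-fixed and immunostained for BCL6. Nuclear BCL6 signal was captured on a high-content imager.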

[3] = class symbols A-D, read-out: IC50 (nM)***

How did the IC50 (BCL6 [1]; [3]) turn out when `CNC(=O)COc1cc2cc(Nc3nc(N4CCC(OCCOCCOCCOCCOCCOc5ccc6c(c5)CN(C5CCC(=O)NC5=O)C6=O)CC4)ncc3Cl)ccc2n(C)c1=O` (centres unmarked) [compound 62, 2-((6-((5-chloro-2-(4-((14-((2-(2,6-dioxopiperidin-3-yl)-1-oxoisoindolin-5-yl)oxy)-3,6,9,12-tetraoxatetradecyl)oxy)piperidin-1-yl)pyrimidin-4-yl)amino)-1-methyl-2-oxo-1,2-dihydroquinolin-3-yl)oxy)-N-methylacetamide] was run?
Its IC50 is 10 to 50 nM.

And the Dmax (BCL6 [2])?
Its Dmax is at least 70%.

And the DC50 (BCL6 [2])?
The DC50 was over 100 nM.

`CNC(=O)COc1cc2cc(Nc3nc(N4CCC(CN5CCN(c6ccc7c(c6)C(=O)N(C6CCC(=O)NC6=O)C7=O)CC5)CC4)ncc3Cl)ccc2n(C)c1=O` (centres unmarked) [compound 104, 2-((6-((5-chloro-2-(4-((4-(2-(2,6-dioxopiperidin-3-yl)-1,3-dioxoisoindolin-5-yl)piperazin-1-yl)methyl)piperidin-1-yl)pyrimidin-4-yl)amino)-1-methyl-2-oxo-1,2-dihydroquinolin-3-yl)oxy)-N-methylacetamide] was tested. Which IC50 (BCL6 [1]; [3]) did it give?
The IC50 was 10 to 50 nM.

And the Dmax (BCL6 [2])?
The Dmax was 50 to 70%.

And the DC50 (BCL6 [2])?
Its DC50 is 10 to 50 nM.

Which IC50 (BCL6 [1]; [3]) does the source give for `CNC(=O)COc1cc2cc(Nc3nc(N4CCC(OCCN5CCN(Cc6ccc(C#Cc7ccc8c(c7)CN(C7CCC(=O)NC7=O)C8=O)cc6)CC5)CC4)ncc3Cl)ccc2n(C)c1=O` (centres unmarked) [compound 119, 2-((6-((5-chloro-2-(4-(2-(4-(4-((2-(2,6-dioxopiperidin-3-yl)-1-oxoisoindolin-5-yl)ethynyl)benzyl)piperazin-1-yl)ethoxy)piperidin-1-yl)pyrimidin-4-yl)amino)-1-methyl-2-oxo-1,2-dihydroquinolin-3-yl)oxy)-N-methylacetamide] here?
The IC50 was under 10 nM.

And the Dmax (BCL6 [2])?
The Dmax was under 50%.

What about the DC50 (BCL6 [2]) of the same compound?
Its DC50 is 10 to 50 nM.

Which IC50 (BCL6 [1]; read-out: IC50) does the source give for `CNC(=O)COc1cc2cc(Nc3nc(N4CCC(O[C@H]5C[C@H](Oc6ccc7c(c6)C(=O)N(C6CCC(=O)NC6=O)C7=O)CN(C)C5)CC4)ncc3Cl)ccc2n(C(C)C)c1=O` (stereo partly drawn) [compound 459, 2-[(6-{[5-chloro-2-(4-{[(3S,5S)-5-{[2-(2,6-dioxopiperidin-3-yl)-1,3-dioxo-2,3-dihydro-1H-isoindol-5-yl]oxy}-1-methylpiperidin-3-yl]oxy}piperidin-1-yl)pyrimidin-4-yl]amino}-2-oxo-1-(propan-2-yl)-1,2-dihydroquinolin-3-yl)oxy]-N-methylacetamide] here?
The IC50 was at least 100 nM.

Which IC50 (BCL6 [1]; read-out: IC50) does the source give for `CNC(=O)COc1cc2cc(Nc3nc(N4CCC(O[C@@H]5C[C@H](COc6ccc7c(c6)C(=O)N(C6CCC(=O)NC6=O)C7=O)N(C)C5)CC4)ncc3Cl)ccc2n(C(C)C)c1=O` (stereo partly drawn) [compound 460, 2-[(6-{[5-chloro-2-(4-{[(3R,5R)-5-({[2-(2,6-dioxopiperidin-3-yl)-1,3-dioxo-2,3-dihydro-1H-isoindol-5-yl]oxy}methyl)-1-methylpyrrolidin-3-yl]oxy}piperidin-1-yl)pyrimidin-4-yl]amino}-2-oxo-1-(propan-2-yl)-1,2-dihydroquinolin-3-yl)oxy]-N-methylacetamide] here?
Its IC50 is at least 100 nM.

Which IC50 (BCL6 [1]; read-out: IC50) does the source give for `CNC(=O)COc1cc2cc(Nc3nc(N4CCC(O[C@@H]5C[C@@H](Oc6ccc7c(c6)C(=O)N(C6CCC(=O)NC6=O)C7=O)CN(C)C5)CC4)ncc3Cl)ccc2n(C(C)C)c1=O` (stereo partly drawn) [compound 464, 2-[(6-{[5-chloro-2-(4-{[(3R,5R)-5-{[2-(2,6-dioxopiperidin-3-yl)-1,3-dioxo-2,3-dihydro-1H-isoindol-5-yl]oxy}-1-methylpiperidin-3-yl]oxy}piperidin-1-yl)pyrimidin-4-yl]amino}-2-oxo-1-(propan-2-yl)-1,2-dihydroquinolin-3-yl)oxy]-N-methylacetamide] here?
The IC50 was at least 100 nM.

How did the IC50 (BCL6 [1]; read-out: IC50) turn out when `CNC(=O)COc1cc2cc(Nc3nc(N4CCC(O[C@@H]5C[C@@H](COc6cccc7c6C(=O)N(C6CCC(=O)NC6=O)C7=O)N(C)C5)CC4)ncc3Cl)ccc2n(C(C)C)c1=O` (stereo partly drawn) [compound 478, 2-[(6-{[5-chloro-2-(4-{[(3R,5S)-5-({[2-(2,6-dioxopiperidin-3-yl)-1,3-dioxo-2,3-dihydro-1H-isoindol-4-yl]oxy}methyl)-1-methylpyrrolidin-3-yl]oxy}piperidin-1-yl)pyrimidin-4-yl]amino}-2-oxo-1-(propan-2-yl)-1,2-dihydroquinolin-3-yl)oxy]-N-methylacetamide] was run?
The IC50 was at least 100 nM.

For `CNC(=O)COc1cc2cc(Nc3nc(N4CCC(O[C@@H]5C[C@@H](Oc6cccc7c6C(=O)N(C6CCC(=O)NC6=O)C7=O)CN(C)C5)CC4)ncc3Cl)ccc2n(C(C)C)c1=O` (stereo partly drawn) [compound 479, 2-[(6-{[5-chloro-2-(4-{[(3R,5R)-5-{[2-(2,6-dioxopiperidin-3-yl)-1,3-dioxo-2,3-dihydro-1H-isoindol-4-yl]oxy}-1-methylpiperidin-3-yl]oxy}piperidin-1-yl)pyrimidin-4-yl]amino}-2-oxo-1-(propan-2-yl)-1,2-dihydroquinolin-3-yl)oxy]-N-methylacetamide], which IC50 (BCL6 [1]; read-out: IC50) is on record?
Its IC50 is at least 100 nM.

`CNC(=O)COc1cc2cc(Nc3nc(N4CCC(O[C@@H]5C[C@H](COc6cccc7c6C(=O)N(C6CCC(=O)NC6=O)C7=O)N(C)C5)CC4)ncc3Cl)ccc2n(C(C)C)c1=O` (stereo partly drawn) [compound 486, 2-[(6-{[5-chloro-2-(4-{[(3R,5R)-5-({[2-(2,6-dioxopiperidin-3-yl)-1,3-dioxo-2,3-dihydro-1H-isoindol-4-yl]oxy}methyl)-1-methylpyrrolidin-3-yl]oxy}piperidin-1-yl)pyrimidin-4-yl]amino}-2-oxo-1-(propan-2-yl)-1,2-dihydroquinolin-3-yl)oxy]-N-methylacetamide] was tested. Which IC50 (BCL6 [1]; read-out: IC50) did it give?
The IC50 was at least 100 nM.

With `CNC(=O)COc1cc2cc(Nc3nc(N4CCC(O[C@@H]5C[C@H](Oc6cccc7c6C(=O)N(C6CCC(=O)NC6=O)C7=O)CN(C)C5)CC4)ncc3Cl)ccc2n(C(C)C)c1=O` (stereo partly drawn) [compound 487, 2-[(6-{[5-chloro-2-(4-{[(3R,5S)-5-{[2-(2,6-dioxopiperidin-3-yl)-1,3-dioxo-2,3-dihydro-1H-isoindol-4-yl]oxy}-1-methylpiperidin-3-yl]oxy}piperidin-1-yl)pyrimidin-4-yl]amino}-2-oxo-1-(propan-2-yl)-1,2-dihydroquinolin-3-yl)oxy]-N-methylacetamide] as the compound, how does the IC50 (BCL6 [1]; read-out: IC50) read?
Its IC50 is at least 100 nM.

How did the IC50 (BCL6 [1]; read-out: IC50) turn out when `CNC(=O)COc1cc2cc(Nc3nc(N4CCC(CN5CCC6(CC5)CCN(c5ccc(N7CCC(=O)NC7=O)c(OC)c5)C6)CC4)ncc3Cl)ccc2n(C(C)C)c1=O` [compound 509, 2-{[6-({5-chloro-2-[4-({2-[4-(2,4-dioxo-1,3-diazinan-1-yl)-3-methoxyphenyl]-2,8-diazaspiro[4.5]decan-8-yl}methyl)piperidin-1-yl]pyrimidin-4-yl}amino)-2-oxo-1-(propan-2-yl)-1,2-dihydroquinolin-3-yl]oxy}-N-methylacetamide] was run?
The IC50 was at least 100 nM.

How did the IC50 (BCL6 [1]; read-out: IC50) turn out when `CNC(=O)COc1cc2cc(Nc3nc(N4CCC(N5CCC6(CCN(c7cccc8c7C(=O)N(C7CCC(=O)NC7=O)C8=O)C6)CC5)CC4)ncc3Cl)ccc2n(C(C)C)c1=O` (centres unmarked) [compound 528, 2-[(6-{[5-chloro-2-(4-{2-[2-(2,6-dioxopiperidin-3-yl)-1,3-dioxo-2,3-dihydro-1H-isoindol-4-yl]-2,8-diazaspiro[4.5]decan-8-yl}piperidin-1-yl)pyrimidin-4-yl]amino}-2-oxo-1-(propan-2-yl)-1,2-dihydroquinolin-3-yl)oxy]-N-methylacetamide] was run?
Its IC50 is 10 to 50 nM.

How did the IC50 (BCL6 [1]; read-out: IC50) turn out when `CNC(=O)COc1cc2cc(Nc3nc(N4CCC(CN5CCCN(c6ccc(OC)c(N7CCC(=O)NC7=O)c6)CC5)CC4)ncc3Cl)ccc2n(C(C)C)c1=O` [compound 530, 2-{[6-({5-chloro-2-[4-({4-[3-(2,4-dioxo-1,3-diazinan-1-yl)-4-methoxyphenyl]-1,4-diazepan-1-yl}methyl)piperidin-1-yl]pyrimidin-4-yl}amino)-2-oxo-1-(propan-2-yl)-1,2-dihydroquinolin-3-yl]oxy}-N-methylacetamide] was run?
The IC50 was 10 to 50 nM.

How did the IC50 (BCL6 [1]; read-out: IC50) turn out when `CNC(=O)COc1cc2cc(Nc3nc(N4CCC(CN5CCCN(c6cccc(N7CCC(=O)NC7=O)c6OC)CC5)CC4)ncc3Cl)ccc2n(C(C)C)c1=O` [compound 535, 2-{[6-({5-chloro-2-[4-({4-[3-(2,4-dioxo-1,3-diazinan-1-yl)-2-methoxyphenyl]-1,4-diazepan-1-yl}methyl)piperidin-1-yl]pyrimidin-4-yl}amino)-2-oxo-1-(propan-2-yl)-1,2-dihydroquinolin-3-yl]oxy}-N-methylacetamide] was run?
Its IC50 is 10 to 50 nM.

Source: US12310975B2, “Modulators of BCL6 proteolysis and associated methods of use” (Arvinas Operations, Inc., priority 2019, dated 2025)
